Results taken from patent US7361758B2, “Crystals of triazaspiro[5.5]undecane derivative” (Ono Pharmaceutical Co., Ltd., priority 2002, dated 2008).

Assays:
[1] = biological target: interaction between chemokine and a chemokine receptor (Homo sapiens, UniProt P51681); assay: antagonistic activity against the interaction between chemokine and a chemokine receptor (method described in WO 01/40227); type: biochemical; conditions: compared with the amorphous substance produced by the method of WO 02/074770
Sequence of interaction between chemokine and a chemokine receptor (P51681 whole entry): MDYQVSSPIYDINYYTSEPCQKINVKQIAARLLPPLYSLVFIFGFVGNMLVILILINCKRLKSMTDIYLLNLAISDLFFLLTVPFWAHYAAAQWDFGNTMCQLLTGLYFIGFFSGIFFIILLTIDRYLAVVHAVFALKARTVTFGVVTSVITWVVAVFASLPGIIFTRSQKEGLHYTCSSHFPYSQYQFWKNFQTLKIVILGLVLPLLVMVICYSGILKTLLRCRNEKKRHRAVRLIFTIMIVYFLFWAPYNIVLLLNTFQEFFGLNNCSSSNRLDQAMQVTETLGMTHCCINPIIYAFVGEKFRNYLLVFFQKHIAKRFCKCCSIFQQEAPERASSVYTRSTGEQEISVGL

rats = conditions: rat, in vivo, 2000 mg/kg
Protocol: Thus, the inventive compound is determined as sufficiently safe for medical use.

`CCCCN1C(=O)[C@@H]([C@H](O)C2CCCCC2)NC(=O)C12CCN(Cc1ccc(Oc3ccc(C(=O)O)cc3)cc1)CC2.Cl` [Crystal A, (3R)-1-butyl-2,5-dioxo-3-[(1R)-1-hydroxy-1-cyclohexylmethyl]-9-[4-(4-carboxyphenyloxy)phenylmethyl]-1,4,9-triazaspiro[5.5]undecane Hydrochloride] was tested, and the “antagonistic activity against the interaction between chemokine and a chemokine receptor” value [1] was “almost the same level as that of the amorphous substance” and the toxicity (rats) was “never showed distinct toxicity”.
